Assay [1] has as its system Tyrosine-protein kinase ABL1 (Homo sapiens), P00519 [F317I]. Briefly: Binding affinity to human phosphorylated ABL1 F317I mutant (S229 to K512 residues) expressed in mammalian expression system assessed as residual binding level at 1 uM by Kinomescan method relative to control.
Assay [2] relates to Tyrosine-protein kinase ABL1 (Homo sapiens), P00519 [F317L]. Briefly: Binding affinity to human phosphorylated ABL1 F317L mutant (S229 to K512 residues) expressed in mammalian expression system assessed as residual binding level at 1 uM by Kinomescan method relative to control.
Assay [3] concerns the target Atypical kinase COQ8A, mitochondrial (Homo sapiens) (UniProt Q8NI60). The assay is described as follows: Binding affinity to wild-type human full length ADCK3 (M280 to Q647 residues) expressed in bacterial expression system assessed as residual binding level at 1 uM by Kinomescan method relative to control.
Assay [4] addresses NUAK family SNF1-like kinase 1 (Homo sapiens) (UniProt O60285). Briefly: Binding affinity to wild-type human partial length ARK5 (E25 to I332 residues) expressed in bacterial expression system assessed as residual binding level at 1 uM by Kinomescan method relative to control.
For assay [5], the system named is Serine/threonine-protein kinase B-raf (Homo sapiens), P15056 [V600E]. The assay is described as follows: Binding affinity to human partial length BRAF V600E mutant (S429 to E741 residues) expressed in mammalian expression system assessed as residual binding level at 1 uM by Kinomescan method relative to control.
Assay [6] has as its target Peripheral plasma membrane protein CASK (Homo sapiens) (UniProt O14936). Briefly: Binding affinity to wild-type human partial length CASK (M1 to H315 residues) expressed in mammalian expression system assessed as residual binding level at 1 uM by Kinomescan method relative to control.
For assay [7], the target named is Citron Rho-interacting kinase (Homo sapiens) (UniProt O14578). The assay is described as follows: Binding affinity to wild-type human partial length CIT (M68 to E432 residues) expressed in bacterial expression system assessed as residual binding level at 1 uM by Kinomescan method relative to control.
The target of assay [8] is Dual specificity protein kinase CLK1 (Homo sapiens) (UniProt P49759). The assay is described as follows: Binding affinity to wild-type human full length CLK1 (M1 to I484 residues) expressed in bacterial expression system assessed as residual binding level at 1 uM by Kinomescan method relative to control.
Assay [9] deals with Dual specificity protein kinase CLK3 (Homo sapiens) (UniProt P49761). Briefly: Binding affinity to wild-type human full length CLK3 (M1 to R490 residues) expressed in bacterial expression system assessed as residual binding level at 1 uM by Kinomescan method relative to control.
The target in assay [10] is Dual specificity tyrosine-phosphorylation-regulated kinase 1A (Homo sapiens) (UniProt Q13627). Briefly: Binding affinity to wild-type human partial length DYRK1A (H129 to S509 residues) expressed in mammalian expression system assessed as residual binding level at 1 uM by Kinomescan method relative to control.
Assay [11] has as its target Receptor-type tyrosine-protein kinase FLT3 (Homo sapiens) (UniProt P36888). Briefly: Binding affinity to wild-type human partial length FLT3 (V592 to Y969 residues) expressed in bacterial expression system assessed as residual binding level at 1 uM by Kinomescan method relative to control.
Assay [12] addresses Tyrosine-protein kinase Lck (Homo sapiens) (UniProt P06239). The assay is described as follows: Binding affinity to wild-type human partial length LCK (R207 to P509 residues) expressed in bacterial expression system assessed as residual binding level at 1 uM by Kinomescan method relative to control.
The test system of assay [13] is Leucine-rich repeat serine/threonine-protein kinase 2 (Homo sapiens), Q5S007 [G2019S]. The assay is described as follows: Binding affinity to human partial length LRRK2 G2019S mutant (H970 to E2527 residues) expressed in mammalian expression system assessed as residual binding level at 1 uM by Kinomescan method relative to control.
Assay [14] addresses Mitogen-activated protein kinase kinase kinase 13 (Homo sapiens) (UniProt O43283). The assay is described as follows: Binding affinity to wild-type human full length LZK (M1 to W966 residues) expressed in mammalian expression system assessed as residual binding level at 1 uM by Kinomescan method relative to control.
Assay [15] has as its target Mitogen-activated protein kinase kinase kinase 1 (Homo sapiens) (UniProt Q13233). Briefly: Binding affinity to wild-type human partial length MAP3K1 (L1202 to W1512 residues) expressed in mammalian expression system assessed as residual binding level at 1 uM by Kinomescan method relative to control.
Assay [16] deals with Myosin-IIIa (Homo sapiens) (UniProt Q8NEV4). The assay is described as follows: Binding affinity to wild-type human partial length MYO3A (M1 to K338 residues) expressed in bacterial expression system assessed as residual binding level at 1 uM by Kinomescan method relative to control.
In assay [17] the target is Serine/threonine-protein kinase 38-like (Homo sapiens) (UniProt Q9Y2H1). The assay is described as follows: Binding affinity to wild-type human partial length NDR2 (N34 to E447 residues) expressed in bacterial expression system assessed as residual binding level at 1 uM by Kinomescan method relative to control.
For assay [18], the target named is Serine/threonine-protein kinase Nek5 (Homo sapiens) (UniProt Q6P3R8). The assay is described as follows: Binding affinity to wild-type human partial length NEK5 (M1 to M279 residues) expressed in bacterial expression system assessed as residual binding level at 1 uM by Kinomescan method relative to control.
Assay [19] deals with Serine/threonine-protein kinase Nek6 (Homo sapiens) (UniProt Q9HC98). The assay is described as follows: Binding affinity to wild-type human full length NEK6 (M8 to T313 residues) expressed in bacterial expression system assessed as residual binding level at 1 uM by Kinomescan method relative to control.
The target in assay [20] is Serine/threonine-protein kinase OSR1 (Homo sapiens) (UniProt O95747). The assay is described as follows: Binding affinity to wild-type human full length OSR1 (M1 to S527 residues) expressed in mammalian expression system assessed as residual binding level at 1 uM by Kinomescan method relative to control.
The target of assay [21] is Phosphatidylinositol 5-phosphate 4-kinase type-2 beta (Homo sapiens) (UniProt P78356). The assay is described as follows: Binding affinity to wild-type human full length PIP5K2B (M1 to T416 residues) expressed in bacterial expression system assessed as residual binding level at 1 uM by Kinomescan method relative to control.
The target of assay [22] is Tyrosine-protein kinase receptor Tie-1 (Homo sapiens) (UniProt P35590). The assay is described as follows: Binding affinity to wild-type human partial length TIE1 (T819 to A1138 residues) expressed in bacterial expression system assessed as residual binding level at 1 uM by Kinomescan method relative to control.
Assay [23] addresses Serine/threonine-protein kinase TNNI3K (Homo sapiens) (UniProt Q59H18). The assay is described as follows: Binding affinity to wild-type human full length TNNI3K (M1 to S835 residues) expressed in bacterial expression system assessed as residual binding level at 1 uM by Kinomescan method relative to control.
The target of assay [24] is Serine/threonine-protein kinase ULK1 (Homo sapiens) (UniProt O75385). Briefly: Binding affinity to wild-type human partial length ULK1 (M1 to T309 residues) expressed in mammalian expression system assessed as residual binding level at 1 uM by Kinomescan method relative to control.

Molecules are shown by their SMILES.

Tyrosine-protein kinase ABL1 (Homo sapiens), P00519 [F317I], sequence (P00519 whole entry F317I, the tested form may be a part): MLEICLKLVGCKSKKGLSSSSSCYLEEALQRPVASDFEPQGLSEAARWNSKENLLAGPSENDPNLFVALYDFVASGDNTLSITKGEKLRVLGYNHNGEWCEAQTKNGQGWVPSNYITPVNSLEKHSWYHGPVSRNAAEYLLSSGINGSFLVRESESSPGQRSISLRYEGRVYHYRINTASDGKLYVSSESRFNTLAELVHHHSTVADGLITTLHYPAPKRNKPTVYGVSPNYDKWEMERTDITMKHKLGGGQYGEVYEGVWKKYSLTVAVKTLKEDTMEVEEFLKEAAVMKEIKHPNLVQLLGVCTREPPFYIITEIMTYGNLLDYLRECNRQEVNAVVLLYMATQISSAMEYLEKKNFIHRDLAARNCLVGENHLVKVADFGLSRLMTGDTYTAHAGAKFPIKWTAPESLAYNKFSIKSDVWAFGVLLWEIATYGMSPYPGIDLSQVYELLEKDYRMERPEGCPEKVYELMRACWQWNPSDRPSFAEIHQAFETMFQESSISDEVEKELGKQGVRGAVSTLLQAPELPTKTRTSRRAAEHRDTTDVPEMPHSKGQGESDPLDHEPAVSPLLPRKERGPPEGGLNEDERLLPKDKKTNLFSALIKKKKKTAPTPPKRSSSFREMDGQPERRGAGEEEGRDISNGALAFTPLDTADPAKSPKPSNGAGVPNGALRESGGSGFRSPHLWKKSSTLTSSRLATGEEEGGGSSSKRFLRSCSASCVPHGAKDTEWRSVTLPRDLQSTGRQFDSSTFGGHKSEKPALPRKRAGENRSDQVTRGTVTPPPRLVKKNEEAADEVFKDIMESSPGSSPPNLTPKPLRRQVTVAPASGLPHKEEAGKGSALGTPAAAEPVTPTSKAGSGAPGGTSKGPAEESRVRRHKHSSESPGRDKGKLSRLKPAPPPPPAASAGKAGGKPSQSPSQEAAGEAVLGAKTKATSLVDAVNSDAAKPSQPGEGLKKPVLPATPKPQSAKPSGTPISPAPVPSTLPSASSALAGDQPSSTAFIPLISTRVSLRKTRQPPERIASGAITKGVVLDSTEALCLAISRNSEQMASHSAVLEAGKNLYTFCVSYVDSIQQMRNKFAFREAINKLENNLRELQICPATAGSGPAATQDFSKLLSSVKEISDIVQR
Receptor-type tyrosine-protein kinase FLT3 (Homo sapiens), sequence (P36888 whole entry, the tested form may be a part): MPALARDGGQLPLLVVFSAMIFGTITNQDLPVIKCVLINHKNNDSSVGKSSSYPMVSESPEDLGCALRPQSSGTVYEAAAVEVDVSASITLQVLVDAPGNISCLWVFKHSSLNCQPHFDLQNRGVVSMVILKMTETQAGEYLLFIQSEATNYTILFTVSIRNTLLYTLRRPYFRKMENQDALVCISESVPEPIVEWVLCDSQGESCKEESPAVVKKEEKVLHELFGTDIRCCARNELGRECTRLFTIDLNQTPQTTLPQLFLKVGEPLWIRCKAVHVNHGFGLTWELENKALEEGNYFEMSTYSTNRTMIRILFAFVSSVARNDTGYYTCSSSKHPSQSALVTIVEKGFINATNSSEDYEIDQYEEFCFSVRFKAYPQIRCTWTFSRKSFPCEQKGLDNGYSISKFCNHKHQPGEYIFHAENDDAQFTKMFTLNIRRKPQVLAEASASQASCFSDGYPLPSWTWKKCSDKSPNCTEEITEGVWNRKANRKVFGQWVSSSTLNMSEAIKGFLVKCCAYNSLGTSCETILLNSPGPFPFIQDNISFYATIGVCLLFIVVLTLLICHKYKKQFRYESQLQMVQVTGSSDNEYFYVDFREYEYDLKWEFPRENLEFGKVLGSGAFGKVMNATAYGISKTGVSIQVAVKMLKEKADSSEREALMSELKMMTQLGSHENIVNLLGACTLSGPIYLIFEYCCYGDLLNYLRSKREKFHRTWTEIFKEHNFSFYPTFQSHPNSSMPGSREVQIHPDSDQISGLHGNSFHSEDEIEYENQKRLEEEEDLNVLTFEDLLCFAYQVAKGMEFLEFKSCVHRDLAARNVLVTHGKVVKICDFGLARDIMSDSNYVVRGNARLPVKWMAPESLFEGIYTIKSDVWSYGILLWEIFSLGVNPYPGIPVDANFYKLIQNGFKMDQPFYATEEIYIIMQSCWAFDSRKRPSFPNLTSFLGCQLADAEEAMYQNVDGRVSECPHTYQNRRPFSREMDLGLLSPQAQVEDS
Tyrosine-protein kinase ABL1 (Homo sapiens), P00519 [F317L], sequence (P00519 whole entry F317L, the tested form may be a part): as the sequence (P00519 whole entry F317I, the tested form may be a part) above, with I317L counted along it
Dual specificity protein kinase CLK3 (Homo sapiens), sequence (P49761 whole entry, looked up, the tested form may be a part): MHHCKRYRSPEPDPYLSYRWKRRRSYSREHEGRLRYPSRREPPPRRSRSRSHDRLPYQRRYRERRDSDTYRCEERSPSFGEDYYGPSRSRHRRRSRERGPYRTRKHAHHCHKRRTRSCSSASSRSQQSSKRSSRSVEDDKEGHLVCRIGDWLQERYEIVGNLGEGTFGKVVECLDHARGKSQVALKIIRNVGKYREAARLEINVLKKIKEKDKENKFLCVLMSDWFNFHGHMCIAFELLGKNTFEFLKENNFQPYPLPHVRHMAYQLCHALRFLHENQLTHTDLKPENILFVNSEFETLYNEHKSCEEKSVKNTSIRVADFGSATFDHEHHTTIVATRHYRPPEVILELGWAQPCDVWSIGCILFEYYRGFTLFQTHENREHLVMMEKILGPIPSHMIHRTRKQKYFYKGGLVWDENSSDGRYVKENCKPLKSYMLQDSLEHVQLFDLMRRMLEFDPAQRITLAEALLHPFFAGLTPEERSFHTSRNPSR
Serine/threonine-protein kinase OSR1 (Homo sapiens), sequence (O95747 2-527 limits assumed): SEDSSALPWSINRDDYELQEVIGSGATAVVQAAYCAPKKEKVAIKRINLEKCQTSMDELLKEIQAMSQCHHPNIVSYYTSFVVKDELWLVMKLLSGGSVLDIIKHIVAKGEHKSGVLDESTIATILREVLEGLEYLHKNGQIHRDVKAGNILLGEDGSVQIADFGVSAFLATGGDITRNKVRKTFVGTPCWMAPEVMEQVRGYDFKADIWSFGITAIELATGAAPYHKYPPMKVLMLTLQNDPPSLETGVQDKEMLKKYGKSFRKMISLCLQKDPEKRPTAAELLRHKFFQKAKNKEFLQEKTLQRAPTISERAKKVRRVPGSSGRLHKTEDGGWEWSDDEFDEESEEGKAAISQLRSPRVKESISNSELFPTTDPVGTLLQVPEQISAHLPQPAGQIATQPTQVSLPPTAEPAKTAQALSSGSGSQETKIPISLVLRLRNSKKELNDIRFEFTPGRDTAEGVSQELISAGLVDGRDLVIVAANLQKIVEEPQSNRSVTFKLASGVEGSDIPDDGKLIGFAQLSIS
Tyrosine-protein kinase Lck (Homo sapiens), sequence (P06239 2-509 limits assumed): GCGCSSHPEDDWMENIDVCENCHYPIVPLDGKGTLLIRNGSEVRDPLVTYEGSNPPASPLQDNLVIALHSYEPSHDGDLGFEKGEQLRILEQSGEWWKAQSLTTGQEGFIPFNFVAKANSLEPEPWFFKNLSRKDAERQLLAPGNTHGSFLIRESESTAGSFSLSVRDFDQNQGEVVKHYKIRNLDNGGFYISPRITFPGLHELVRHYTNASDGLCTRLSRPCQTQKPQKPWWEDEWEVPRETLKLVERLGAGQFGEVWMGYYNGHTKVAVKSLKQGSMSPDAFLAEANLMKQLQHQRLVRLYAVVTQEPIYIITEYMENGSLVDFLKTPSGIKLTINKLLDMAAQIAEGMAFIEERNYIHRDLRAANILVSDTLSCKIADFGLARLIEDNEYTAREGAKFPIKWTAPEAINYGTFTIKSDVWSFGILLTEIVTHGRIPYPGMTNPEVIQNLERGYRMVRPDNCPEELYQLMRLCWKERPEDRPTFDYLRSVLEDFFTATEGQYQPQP

For the compound `CC(C)Nc1sc(C(=O)c2ccc(Cl)s2)c(N)c1C#N`, the Activity in [1] came out at 100%; in assay [2], 100%; in [3], 93%; in assay [4], 82%; in assay [5] it was 97%; in assay [6] it was 100%. In addition, the Activity in assay [7] stood at 72%; in [8], 70%; in assay [9], 74%; in assay [10] it was 100%; in [11], 93%; in assay [12], 93%. The Activity is 79% in [13]; 92% in assay [14]; 100% in assay [15]; 75% in [16]; 89% in assay [17]; 91% in [18]. The Activity in assay [19] worked out at 100%; in assay [20], 83%; in assay [21] it was 100%; in [22], 69%; in [23] it was 75%; in [24], 92%.

The values above are taken from ChEMBL document CHEMBL4330132, “5-Keto-3-cyano-2,4-diaminothiophenes as selective maternal embryonic leucine zipper kinase inhibitors” (Bioorg Med Chem Lett, 2019).
